Test results as given in patent publication US20170009266A1, “PROCESS FOR THE ATTACHMENT OF A GALNAC MOIETY COMPRISING A (HETERO)ARYL GROUP TO A GLCNAC MOIETY, AND PRODUCT OBTAINED THEREBY” (SYNAFFIX B.V., priority 2014, published 2017).

Experiments:
[1] = target: T1, Gal-T1(Y289M) (Bos taurus, UniProt P08037, I205M/L206V/P187L/V158I/Y289M); test: Glycosyltransfer to trimmed trastuzumab with Gal-T1(Y289M) expressed in CHO; format: biochemical, bovine; conditions: trimmed trastuzumab 10 mg/mL; UDP derivative 5 mM; enzyme 0.5 mg/mL; pH 8.0, 30° C. overnight
T1 construct: host or cells: CHO K1
T1 sequence (P08037 74-402 V158I/P187L/I205M/L206V/Y289M): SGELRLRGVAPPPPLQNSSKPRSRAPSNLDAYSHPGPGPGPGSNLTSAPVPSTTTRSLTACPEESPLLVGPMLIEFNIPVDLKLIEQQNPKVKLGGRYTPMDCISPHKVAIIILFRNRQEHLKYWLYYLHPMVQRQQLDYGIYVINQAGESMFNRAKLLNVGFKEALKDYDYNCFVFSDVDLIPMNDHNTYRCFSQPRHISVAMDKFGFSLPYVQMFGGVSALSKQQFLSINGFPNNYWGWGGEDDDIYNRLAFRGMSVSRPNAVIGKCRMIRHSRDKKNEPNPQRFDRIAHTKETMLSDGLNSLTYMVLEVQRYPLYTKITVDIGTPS
Excerpt: A set of Gal-T 1 mutants encoding residues 74-402 of bovine Gal-T 1 were transiently expressed in CHO K1 cells by Evitria (Zurich, Switzerland) which include the Gal-T1 single mutants Y289L (represented by SEQ ID NO: 26), Y289F (represented by SEQ ID NO: 27), Y289M (represented by SEQ ID NO: 28), Y289V (represented by SEQ ID NO: 29), Y289A (represented by SEQ ID NO: 30), and Y289G (represented by SEQ ID NO: 31), and the Gal-T1 double mutants Y289L,C342T (represented by SEQ ID NO: 32), and Y289M,C342T (represented by SEQ ID NO: 33). The mutants were purified using a cation exchange column (Source 15S HR16/10 column, GE Healthcare) as described above. Purified proteins were analyzed by SDS-PAGE.
Trimmed trastuzumab (10 mg/mL, […] obtained by Endo S treatment of trastuzumab, was incubated with the 4-azido-3,5-difluorobenzoyl derivative of UDP-galactosamine (23, 5 mM) and one of the Gal-T1 single mutants Y289L, Y289M, Y289A or Y289G (expressed in CHO as described above) (0.5 mg/mL) in 10 mM MnCl2 and 25 mM Tris-HCl pH 8.0 at 30° C. overnight. Mass spectral analysis of the reduced sample indicated a partial conversion of the core GlcNac(Fuc)-substituted trastuzumab heavy chain (49504 Da) into product 30 (49818 to 49825 Da, 20 to 50% of total heavy chain depending on the Gal-T1 mutant used), resulting from transfer of 23 to core GlcNAc(Fuc)-substituted trastuzumab heavy chain. […]

[2] = target: T2, β(1,4)-Gal-T1(Y289L) (Bos taurus, UniProt P08037, I205M/L206V/P187L/V158I/Y289L); test: Glycosyltransfer of UDP-galactosamine derivatives to trimmed trastuzumab with Gal-T1(Y289L) expressed in E. coli, mass spectral analysis; format: biochemical, bovine; conditions: trimmed trastuzumab 10 mg/mL; UDP derivative 7 mM; enzyme 2 mg/mL; pH 8.0, 30° C. overnight; reduced sample
T2 construct: made in house; host or cells: E. coli
T2 sequence (P08037 1-402 V158I/P187L/I205M/L206V/Y289L): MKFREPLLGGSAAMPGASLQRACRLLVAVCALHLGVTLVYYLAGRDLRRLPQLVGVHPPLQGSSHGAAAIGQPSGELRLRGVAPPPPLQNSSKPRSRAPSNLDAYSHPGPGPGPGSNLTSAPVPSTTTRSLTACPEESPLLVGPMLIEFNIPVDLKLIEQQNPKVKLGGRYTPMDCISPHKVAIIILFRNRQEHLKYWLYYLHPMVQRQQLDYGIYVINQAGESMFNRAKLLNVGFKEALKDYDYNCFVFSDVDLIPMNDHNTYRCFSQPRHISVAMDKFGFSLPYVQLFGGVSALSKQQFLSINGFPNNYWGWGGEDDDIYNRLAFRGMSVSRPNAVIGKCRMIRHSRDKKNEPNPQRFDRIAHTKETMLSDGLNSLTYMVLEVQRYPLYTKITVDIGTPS
Experimental: General Protocol for Glycosyltransfer of Galactose Derivative UDP-GalNAz 21-24 with Gal-T1(Y289L) (Expressed in E. coli).
Enzymatic introduction of UDP-Gal derivatives 21-24 onto deglycosylated trastuzumab was effected with a mutant of bovine β(1,4)-galactosyltransferase [β(1,4)-Gal-T1(Y289L)] (expressed in E. coli). The deglycosylated trastuzumab (10 mg/mL) was incubated with the appropriate UDP-galactose derivative (0.4 mM) and β(1,4)-Gal-T1(Y289L) (1 mg/mL) in 10 mM MnCl2 and 25 mM Tris-HCl pH 8.0 for 16 hours at 30° C.
Next, the functionalized trastuzumab was incubated with protein A agarose (40 μL per mg IgG) for 2 hours at 4° C. The protein A agarose was washed three times with PBS and the IgG was eluted with 100 mM glycine-HCl pH 2.7. The eluted IgG was neutralized with 1 M Tris-HCl pH 8.0 and concentrated and washed with PBS using an Amicon Ultra-0.5, Ultracel-10 Membrane (Millipore) to a concentration of 15-20 mg/mL.
Trimmed trastuzumab (10 mg/mL, 3.3 nmol), obtained by Endo S treatment of trastuzumab, was incubated with UDP-galactosamine variant 21 (2.5 mM) and β(1,4)-Gal-T1(Y289L) (0.68 mg/mL, 45 μL) in 10 mM MnCl2 and 25 mM Tris-HCl pH 8.0 at 30° C. overnight.
Trimmed trastuzumab (10 mg/mL, 1.3 nmol), obtained by Endo S treatment of trastuzumab, was incubated with UDP-galactosamine variant 22 (4 mM) and β(1,4)-Gal-T1(Y289L) (1.4 mg/mL, 10 μL) in 10 mM MnCl2 and 25 mM Tris-HCl pH 8.0 at 30° C. overnight. Mass spectral analysis of the reduced sample indicated the formation of the product (49750.9 Da, approximately 80% of total heavy chain), resulting from galactosamide furan-2-carboxyl acid transfer to core GlcNAc(Fuc) substituted trastuzumab heavy chain as shown in FIG. 9.
Trimmed trastuzumab (10 mg/mL, 6.6 nmol), obtained by Endo S treatment of trastuzumab, was incubated with the 4-azido-3,5-difluorobenzoyl derivative of UDP-galactosamine (23, 7 mM) and β(1,4)-Gal-T1(Y289L) (2 mg/mL) in 10 mM MnCl2 and 25 mM Tris-HCl pH 8.0 at 30° C. overnight. Mass spectral analysis of the reduced sample indicated the formation of a one major product (49813 Da, approximately 90% of total heavy chain), resulting from transfer of 23 to core GlcNAc(Fuc)-substituted trastuzumab heavy chain.
Trimmed trastuzumab (10 mg/mL, 1.3 nmol), obtained by Endo S treatment of trastuzumab, was incubated with UDP-galactosamine variant 24 (4 mM) and (3(1,4)-Gal-T1(Y289L) (1.4 mg/mL, 10 μL) in 10 mM MnCl2 and 25 mM Tris-HCl pH 8.0 at 30° C. overnight.

With `[N-]=[N+]=Nc1c(F)cc(C(=O)N[C@H]2[C@@H](OP(=O)(O)OP(=O)(O)OC[C@H]3O[C@@H](n4ccc(=O)[nH]c4=O)[C@H](O)[C@@H]3O)O[C@H](CO)[C@H](O)[C@@H]2O)cc1F` [Compound 23, 4-azido-3,5-difluorobenzoyl Derivative of UDP-GalNH2] the observed conversion [1] was “approximately 50%” and the “product, % of total heavy chain” value [2] was “approximately 90%”.
